Test results reported in ChEMBL document CHEMBL4373731, “Antiprotozoal alkaloid principles of the plant family Amaryllidaceae” (Bioorg Med Chem Lett, 2019).
Values after ≈ are worked out from the molar mass of the structure shown.

Key:
[1] = tested on: Leishmania donovani; assay: […] activity against Leishmania donovani; assay type: functional, organism-based
[2] = tested on: Trypanosoma cruzi; assay: Antitrypanosomal activity against Trypanosoma cruzi; assay type: functional, organism-based
[3] = tested on: Trichomonas vaginalis; assay: Antiprotozoal activity against Trichomonas vaginalis assessed as reduction in […] at 250 ug/ml at relative to control; assay type: functional
[4] = tested on: Trypanosoma brucei rhodesiense; assay: Antitrypanosomal activity against Trypanosoma brucei rhodesiense; assay type: functional, organism-based
[5] = tested on: L6; assay: Cytotoxicity against rat L6 cells assessed as reduction in cell viability; assay type: cell-based
[6] = Selectivity index, ratio of IC50 for Trypanosoma brucei rhodesiense to IC50 for human KB cells; assay type: toxicity; settings: read-out: Ratio IC50
[7] = tested on: KB; assay: Cytotoxicity against human KB cells assessed as reduction in cell viability; assay type: cell-based
[8] = tested on: Trichomonas vaginalis; assay: Antitrichomonal activity against Trichomonas vaginalis assessed as reduction in parasite viability at 125 ug/ml relative to control; assay type: functional
[9] = tested on: Entamoeba histolytica; assay: […] activity against Entamoeba histolytica; assay type: functional, organism-based
[10] = tested on: Trypanosoma brucei rhodesiense; assay: Antitrypanosomal activity against Trypanosoma brucei rhodesiense after 48 hrs by [3H]-hypoxanthine incorporation assay; assay type: functional, organism-based
[11] = tested on: Leishmania donovani; assay: […] activity against Leishmania donovani after 48 hrs by [3H]-hypoxanthine incorporation assay; assay type: functional, organism-based
[12] = tested on: Trypanosoma cruzi; assay: Antitrypanosomal activity against Trypanosoma cruzi after 48 hrs by [3H]-hypoxanthine incorporation assay; assay type: functional, organism-based

IC50 [2] [µg/mL] | SMILES | IC50 [1] [µg/mL] | IC50 [4] [µg/mL] | other results
– | O=C(O[C@H]1[C@H]2c3cc4c(cc3CN3CCC(=C[C@@H]1OC(=O)c1ccccc1)[C@H]23)OCO4)c1ccccc1 | – | – | Activity [3]: 84%
– | O=C(O[C@H]1C=C2CCN3Cc4cc5c(cc4[C@H]([C@@H]1O)[C@@H]23)OCO5)c1ccccc1 | – | – | Activity [3]: 35%
90 (≈ 342 µM) | O=c1c2cc3c(cc2c2cccc4ccn1c42)OCO3 | – | 8.4 (≈ 31.9 µM) | –
– | COc1cc2c(cc1OC)[C@@]13C=CC(=O)C[C@@H]1[N@](CC3)C2 | – | 2.8 (≈ 9.81 µM) | –
– | CCCCCCCCCCCC(=O)O[C@H]1C=C2CCN3Cc4cc5c(cc4[C@H]([C@@H]1O)[C@@H]23)OCO5 | – | – | Activity [3]: 97%
> 30 | COc1cc2c[n+]3c4c(cc([O-])cc4c2cc1O)CC3 | > 30 | > 30 | –
88.4 (≈ 291 µM) | COc1cc2c(cc1O)C[N@@]1C[C@H](O)[C@@]23C=C[C@@H](OC)C[C@H]13 | > 90 | 10.2 (≈ 33.7 µM) | –
> 90 | COc1cc2c(cc1OC)[C@@H]1[C@H](OC(C)=O)[C@@H](O)C[C@H]3CC[N+]([O-])(C2)[C@H]31 (some centres undefined) | > 90 | 73.4 (≈ 202 µM) | IC50 [5]: > 90 µg/mL; selectivity ratio [6]: > 16; IC50 [7]: > 50 µg/mL
52.7 (≈ 207 µM) | O=c1[nH]c2c(O)cccc2c2cc3c(cc12)OCO3 | > 90 | 5.99 (≈ 23.5 µM) | –
54.6 (≈ 190 µM) | O[C@H]1[C@H]2C(=CC[C@@H]1O)[C@H]1C[N@]2Cc2cc3c(cc21)OCO3 | > 30 | 9.6 (≈ 33.4 µM) | –
> 90 | [O-][N@@+]12Cc3cc4c(cc3[C@]3(C=C[C@@H](O)C[C@@H]31)[C@@H](O)C2)OCO4 | > 90 | > 90 | –
– | O[C@H]1CC[C@H]2[N@@]3CC[C@@]2(c2cc4c(cc2C3)OCO4)[C@H]1O | – | 11.1 (≈ 38.3 µM) | –
8.3 (≈ 25.2 µM) | CC(=O)O[C@H]1C=C[C@@]23c4cc5c(cc4C[N@@](C[C@@H]2O)[C@H]3C1)OCO5 | 17.9 (≈ 54.3 µM) | 1.51 (≈ 4.58 µM) | –
– | O=C(O[C@H]1[C@H]2c3cc4c(cc3CN3CCC(=C[C@@H]1O)[C@H]23)OCO4)c1ccc([N+](=O)[O-])cc1 | – | – | Activity [3]: 58%
46.3 (≈ 131 µM) | CN1CCc2cc3c(cc2C(=O)Cc2ccc4c(c2C1)OCO4)OCO3 | > 90 | 8.71 (≈ 24.6 µM) | –
– | c1c2c(cc3c1[C@@H]1C[C@H]4[C@H](CC[C@@H]5NCC[C@@]354)O1)OCO2 | – | 18.7 (≈ 65.5 µM) | –
– | O=C(O[C@H]1C=C2CCN3Cc4cc5c(cc4[C@H]([C@@H]1O)[C@@H]23)OCO5)c1ccc([N+](=O)[O-])cc1 | – | – | Activity [3]: 79%
– | COc1cc2c(cc1OC)[C@@H]1[C@H](O)[C@@H](OC)[C@H](O)C3=CCN(C2)[C@H]31 | – | 3.1 (≈ 9.3 µM) | –
– | O[C@@H]1CC[C@H]2N3CC[C@@]2(c2cc4c(cc2C3)OCO4)[C@@H]1O | – | 31.9 (≈ 110 µM) | –
– | CN1CCC2=C[C@H](O)[C@H]3OC(=O)c4cc5c(cc4[C@H]3[C@@H]21)OCO5 | – | – | Activity [8]: 13%

IC50 [2] [µg/mL] | SMILES | IC50 [1] [µg/mL] | IC50 [4] [µg/mL] | other results
– | COc1cc(C=O)c(-c2cccc3c2N(C)CC3)cc1OC | – | – | Activity [8]: 28%; Activity [3]: 28%
1 to 8.4 (≈ 2.69 to 22.6 µM) | CC(=O)O[C@H]1[C@H]2c3cc4c(cc3CN3CCC(=C[C@@H]1OC(C)=O)[C@H]23)OCO4 | – | 1 to 125 (≈ 2.69 to 337 µM) | Activity [3]: 19%
– | CO[C@H]1C=C[C@@]23c4cc5c(cc4CN(C[C@@H]2O)[C@H]3C1)OCO5 | – | – | IC50 [9]: 0.53 µg/mL (≈ 1.76 µM)
– | CO[C@@H]1C=C[C@@]23c4cc5c(cc4[C@H](O)O[C@H]2CN(C)[C@H]3C1)OCO5 | – | – | Activity [8]: 38%
35.9 (≈ 115 µM) | CC(=O)O[C@@H]1CC=C2CCN3Cc4cc5c(cc4[C@H]1[C@@H]23)OCO5 [ACETYLCARANINE] | > 100 | 1.97 (≈ 6.29 µM) | –
0.36 (≈ 1.38 µM) | O=C(Cn1ccnc1[N+](=O)[O-])NCc1ccccc1 [BENZNIDAZOLE] | 0.2 (≈ 0.768 µM) | 0.04 (≈ 0.154 µM) | IC50 [10]: 0.001 µg/mL (≈ 0.00384 µM); IC50 [11]: 33.3 µg/mL (≈ 128 µM); IC50 [12]: 5.42 µg/mL (≈ 20.8 µM)
– | COc1c2c(cc3c1C(=O)O[C@H]1[C@@H]3[C@H]3C(=C[C@@H]1O)CCN3C)OCO2 [CANDIMINE] | – | – | Activity [3]: 60%
– | O[C@H]1C=C[C@@]23CCN(Cc4cc5c(cc42)OCO5)[C@@H]3C1 [CRININE] | – | 18.9 (≈ 69.8 µM) | –
– | COc1cc2c(cc1OC)[C@@H]1[C@H](O)[C@@H](OC)C=C3CCN(C2)[C@H]31 [GALANTHINE] | – | 3.1 (≈ 9.77 µM) | –
– | O[C@H]1[C@H]2c3cc4c(cc3CN3CCC(=C[C@@H]1O)[C@H]23)OCO4 [LYCORINE] | – | 3.1 (≈ 10.8 µM) | Activity [8]: 20%; IC50 [9]: 0.23 µg/mL (≈ 0.801 µM); Activity [3]: 40%
0.36 (≈ 0.883 µM) | CCCCCCCCCCCCCCCCOP(=O)([O-])OCC[N+](C)(C)C [MILTEFOSINE] | 0.2 (≈ 0.491 µM) | 0.04 (≈ 0.0981 µM) | –
– | CO[C@H]1C=C2[C@H]3CN(Cc4cc5c(cc43)OCO5)[C@H]2C[C@@H]1O [MONTANINE] | – | – | Activity [8]: 35%
> 90 | O=C(O)c1cccnc1 [NIACIN] | 57.4 (≈ 466 µM) | 41.2 (≈ 335 µM) | –
– | COc1cc2c(cc1O)CN1CCC3=CC[C@@H](O)[C@@H]2[C@@H]31 [NORPLUVINE] | – | 90 (≈ 329 µM) | –
– | Cc1ncc([N+](=O)[O-])n1CC(O)CCl (centres undefined) [ORNIDAZOLE] | – | – | IC50 [9]: 0.28 µg/mL (≈ 1.27 µM)
– | COc1cc([C@@H]2c3cc4c(cc3[C@H](O)[C@H]3COC(=O)[C@H]23)OCO4)cc(OC)c1OC [PODOFILOX] | – | – | IC50 [5]: 0.005 µg/mL (≈ 0.0121 µM); IC50 [7]: 0.002 µg/mL (≈ 0.00483 µM)
> 30 | COc1cc2c(cc1O)[C@@H]1[C@H](O)[C@@H](O)C=C3CCN(C2)[C@H]31 [PSEUDOLYCORINE] | > 30 | – | –
17.5 (≈ 54.2 µM) | c1cc2c(c3c1C[C@H]1c4cc5c(cc4CCN1C3)OCO5)OCO2 [STYLOPINE] | 31.2 (≈ 96.4 µM) | 10.9 (≈ 33.7 µM) | –
– | CO[C@@H]1C=C[C@@]23c4cc5c(cc4CO[C@]2(O)CN(C)[C@H]3C1)OCO5 [TAZETTINE] | – | – | Activity [8]: 15%
0.85 (≈ 3.2 µM) | [O-]c1cc2c3c(c1)c1cc4c(cc1c[n+]3CC2)OCO4 [UNGEREMINE] | > 30 | 0.97 (≈ 3.66 µM) | –

SMILES | IC50 [2] [µg/mL] | IC50 [1] [µg/mL] | IC50 [4] [µg/mL] | other results
COc1ccc2c3c1O[C@H]1C[C@H](O)C=C[C@@]31CCN(C)C2 | > 30 | > 30 | – | –
O[C@H]1C=C2[C@H]3CN(Cc4cc5c(cc43)OCO5)[C@H]2C[C@@H]1O | 7.1 (≈ 24.7 µM) | > 30 | 0.7 (≈ 2.44 µM) | –
CN1CC[C@]23c4cc5c(cc4[C@@H]4C[C@H]2[C@H](CC[C@H]13)O4)OCO5 | 54 (≈ 180 µM) | > 100 | 19.2 (≈ 64.1 µM) | –
COc1ccc(CNCCc2ccc(O)cc2)cc1O | 58.7 (≈ 215 µM) | 52.9 (≈ 194 µM) | 28.6 (≈ 105 µM) | –
COc1c2c(cc3c1OCO3)[C@]13CC[N@](C2)[C@H]1CC=C[C@@H]3O | > 30 | > 30 | 28.8 (≈ 95.6 µM) | –
CC(=O)O[C@H]1C=C[C@@]23CCN(C)Cc4ccc(O)c(c42)O[C@H]3C1 | 2.3 (≈ 7.29 µM) | – | 1.1 (≈ 3.49 µM) | –
COc1c2c(cc3c1OCO3)[C@@]13CC[N@@](C2)[C@@H]1C[C@@H](OC)[C@@H]1O[C@@H]13 | 56 (≈ 169 µM) | > 100 | 15 (≈ 45.4 µM) | –
CO[C@@H]1C=C[C@@]23c4cc5c(cc4[C@H](O)N(C[C@@H]2O)[C@H]3C1)OCO5 | 1.38 to 1.4 (≈ 4.35 to 4.41 µM) | – | 1.1 (≈ 3.47 µM) | –
O[C@H]1[C@H]2c3cc4c(cc3CN3CC[C@H](C[C@@H]1O)[C@H]23)OCO4 | 21.4 (≈ 73.9 µM) | > 90 | 3.1 (≈ 10.7 µM) | IC50 [5]: 27 µg/mL (≈ 93.3 µM); selectivity ratio [6]: > 16; IC50 [7]: > 50 µg/mL
COC1C=C[C@@]23CCN(Cc4cc5c(cc42)OCO5)[C@@H]3C1 (some centres undefined) | 55.5 (≈ 195 µM) | > 100 | 16.5 (≈ 57.8 µM) | –
COc1cc2c(cc1O)CN1CC[C@@]23C=CC(O)C[C@H]13 (some centres undefined) | > 90 | > 90 | 61.5 (≈ 225 µM) | –
CO[C@@H]1C=C[C@@]23c4cc5c(cc4CN(C[C@@H]2O)[C@H]3C1)OCO5 [(+)-HAEMANTHAMINE] | 1.8 to 30 (≈ 5.97 to 99.6 µM) | 1.95 to 30 (≈ 6.47 to 99.6 µM) | 0.49 to 3.35 (≈ 1.63 to 11.1 µM) | IC50 [9]: 0.75 µg/mL (≈ 2.49 µM)
COc1c2c(cc3c1OCO3)[C@@]13CCN(C2)[C@@H]1CC=C[C@H]3O [BUPHANAMINE] | 62.9 (≈ 209 µM) | > 100 | 28.2 (≈ 93.6 µM) | –
COc1ccc2c3c1O[C@H]1C[C@@H](O)C=C[C@@]31CCN(C)C2 [GALANTAMINE] | > 30 | > 30 | > 30 | –
Nc1nc(N)nc(Nc2ccc([As]3SCC(CO)S3)cc2)n1 (centres undefined) [MELARSOPROL] | 0.36 | 0.2 | 0.04 | IC50 [11]: 33.3 µg/mL; IC50 [12]: 5.42 µg/mL
CN1CC[C@@]23C=C[C@H](O)C[C@@H]2Oc2c(O)ccc(c23)C1 [SANGUININE] | > 30 | > 30 | 22.5 (≈ 82.3 µM) | –
